According to patent US20020035061A1, “COMPOSITIONS AND METHODS FOR TREATING INFECTIONS USING CATIONIC PEPTIDES ALONE OR IN COMBINATION WITH ANTIBIOTICS” (priority 1996, published 2002):
Several values for one entry are separate records, joined by “and”; a condition that tells them apart may be missing. Equal values may be shown once. Read-outs that look alike come from different tables or passages of the source.

Tests used:
Type in all cases: cell-based
S. aureus = settings: for MIC, Peptide: unmodified parent peptide; for Peptide MIC values: agarose dilution
E. faecium = system: E. faecium
bacterial isolates = test: microbe, parasite or virus in culture
[1] = system: E. coli strain ML-35 inner membrane
[2] = P. aeruginosa 23, Piperacillin section
[3] = S. aureus 19 MRSA, Piperacillin section
[4] = peptide + Piperacillin, P. aeruginosa 23
[5] = peptide + Piperacillin, S. aureus 19 MRSA

For ILRWPWWPWRRK [MBI 11B7CN], the “MIC, Peptide” value (S. aureus; S. aureus SA010) was 1 µg/mL, the “MIC, Peptide” value (S. aureus; S. aureus SA011) was 4 µg/mL and the “MIC, Peptide” value (S. aureus; S. aureus SA014) was 2 µg/mL. The “MIC, Peptide” value (S. aureus; S. aureus SA018) was 16 µg/mL, the “MIC, Peptide” value (S. aureus; S. aureus SA025) was 1 µg/mL and the “MIC, Peptide” value (S. aureus; S. aureus SA093) was 1 µg/mL. The MIC (S. aureus; S. aureus strain SA009) was 2 µg/mL, the MIC (E. faecium; E. faecium strain EFM001) was 4 µg/mL and the “Peptide MIC Alone” value (bacterial isolates; 2. Ceftriaxone, A. baumannii ABI002) was 32 µg/mL. For the same sequence, the “Peptide MIC Alone” value (bacterial isolates; 2. Ceftriaxone, A. baumannii ABI006) was 32 µg/mL, the “Peptide MIC Alone” value (bacterial isolates; 2. Ceftriaxone, B. cepacia BC003) was >128 µg/mL and the “Peptide MIC Alone” value (bacterial isolates; 2. Ceftriaxone, P. aeruginosa PA008) was 128 µg/mL. For the same sequence, the “Peptide MIC Alone” value (bacterial isolates; 2. Ceftriaxone, P. aeruginosa PA024) was >128 µg/mL, the “Peptide MIC Alone” value (bacterial isolates; 2. Ceftriaxone, S. maltophilia SMA020) was 16 µg/mL and the “Peptide MIC Alone” value (bacterial isolates; 2. Ceftriaxone, S. maltophilia SMA021) was 32 µg/mL. The “Peptide MIC Alone” value (bacterial isolates; 2. Ceftriaxone, S. maltophilia SMA023) was 128 µg/mL, the “Ceftriaxone MIC + Peptide” value (bacterial isolates; A. baumannii ABI002) was 8 µg/mL and the “Peptide MIC + Ceftriaxone” value (bacterial isolates; A. baumannii ABI002) was 8 µg/mL. For the same sequence, the “Ceftriaxone MIC + Peptide” value (bacterial isolates; A. baumannii ABI006) was 16 µg/mL, the “Ceftriaxone MIC + Peptide” value (bacterial isolates; B. cepacia BC003) was 16 µg/mL and the “Peptide MIC + Piperacillin” value (bacterial isolates; E. cloacae 6) was 16 µg/mL. For the same sequence, the “Piperacillin MIC + Peptide” value (bacterial isolates; E. cloacae 6) was 16 µg/mL, the “Peptide MIC Alone” value (bacterial isolates; E. cloacae 6, Piperacillin section) was 32 µg/mL and the “Peptide MIC + Piperacillin” value (bacterial isolates; E. cloacae 9) was 16 µg/mL. For the same sequence, the “Piperacillin MIC + Peptide” value (bacterial isolates; E. cloacae 9) was 1 µg/mL, the “Peptide MIC Alone” value (bacterial isolates; E. cloacae 9, Piperacillin section) was 32 µg/mL and the “Peptide MIC + Piperacillin” value (bacterial isolates; E. cloacae 10) was 16 µg/mL. For the same sequence, the “Piperacillin MIC + Peptide” value (bacterial isolates; E. cloacae 10) was 0.5 µg/mL, the “Peptide MIC Alone” value (bacterial isolates; E. cloacae 10, Piperacillin section) was 32 µg/mL and the “Peptide MIC + Piperacillin” value (bacterial isolates; H. influenzae 1) was 0.125 µg/mL. The “Piperacillin MIC + Peptide” value (bacterial isolates; H. influenzae 1) was 32 µg/mL, the “Peptide MIC Alone” value (bacterial isolates; H. influenzae 1, Piperacillin section) was >128 µg/mL and the “Peptide MIC + Piperacillin” value (bacterial isolates; H. influenzae SB1) was 0.125 µg/mL. For the same sequence, the “Piperacillin MIC + Peptide” value (bacterial isolates; H. influenzae SB1) was 0.25 µg/mL, the “Peptide MIC Alone” value (bacterial isolates; H. influenzae SB1, Piperacillin section) was >128 µg/mL and the “Peptide MIC + Piperacillin” value (bacterial isolates; P. aeruginosa 23) was 64 µg/mL. The “Piperacillin MIC + Peptide” value (bacterial isolates; P. aeruginosa 23) was 2 µg/mL, the “Peptide MIC Alone” value (bacterial isolates; [2]) was 128 µg/mL and the “Ceftriaxone MIC + Peptide” value (bacterial isolates; P. aeruginosa PA008) was 16 µg/mL. The “Peptide MIC + Ceftriaxone” value (bacterial isolates; P. aeruginosa PA008) was 16 µg/mL, the “Ceftriaxone MIC + Peptide” value (bacterial isolates; P. aeruginosa PA024) was 32 µg/mL and the “Peptide MIC + Ceftriaxone” value (bacterial isolates; P. aeruginosa PA024) was 0.125 µg/mL. The “Peptide MIC + Piperacillin” value (bacterial isolates; S. aureus 19 MRSA) was 1 µg/mL, the “Piperacillin MIC + Peptide” value (bacterial isolates; S. aureus 19 MRSA) was 32 µg/mL and the “Peptide MIC Alone” value (bacterial isolates; [3]) was 4 µg/mL. For the same sequence, the “Peptide MIC + Piperacillin” value (bacterial isolates; S. maltophilia 5) was 64 µg/mL, the “Piperacillin MIC + Peptide” value (bacterial isolates; S. maltophilia 5) was 64 µg/mL and the “Peptide MIC Alone” value (bacterial isolates; S. maltophilia 5, Piperacillin section) was >128 µg/mL. For the same sequence, the “Peptide MIC + Piperacillin” value (bacterial isolates; S. maltophilia 9) was 64 µg/mL, the “Piperacillin MIC + Peptide” value (bacterial isolates; S. maltophilia 9) was 64 µg/mL and the “Peptide MIC Alone” value (bacterial isolates; S. maltophilia 9, Piperacillin section) was >128 µg/mL. The “Peptide MIC + Piperacillin” value (bacterial isolates; S. maltophilia 11) was 32 µg/mL, the “Piperacillin MIC + Peptide” value (bacterial isolates; S. maltophilia 11) was 64 µg/mL and the “Peptide MIC Alone” value (bacterial isolates; S. maltophilia 11, Piperacillin section) was >128 µg/mL. For the same sequence, the “Ceftriaxone MIC + Peptide” value (bacterial isolates; S. maltophilia SMA020) was 64 µg/mL, the “Peptide MIC + Ceftriaxone” value (bacterial isolates; S. maltophilia SMA020) was 8 µg/mL and the “Ceftriaxone MIC + Peptide” value (bacterial isolates; S. maltophilia SMA021) was 64 µg/mL. The “Peptide MIC + Ceftriaxone” value (bacterial isolates; S. maltophilia SMA021) was 8 µg/mL, the “Ceftriaxone MIC + Peptide” value (bacterial isolates; S. maltophilia SMA023) was 32 µg/mL and the “Peptide MIC + Ceftriaxone” value (bacterial isolates; S. maltophilia SMA023) was 16 µg/mL. For the same sequence, the “Peptide MIC + Piperacillin” value (bacterial isolates; S. marcescens 1) was 4 µg/mL, the “Piperacillin MIC + Peptide” value (bacterial isolates; S. marcescens 1) was 8 µg/mL and the “Peptide MIC Alone” value (bacterial isolates; S. marcescens 1, Piperacillin section) was >128 µg/mL. The FIC (bacterial isolates; peptide + Ceftriaxone, A. baumannii ABI002) was 0.50, the FIC (bacterial isolates; peptide + Ceftriaxone, A. baumannii ABI006) was 0.25 and the FIC (bacterial isolates; peptide + Ceftriaxone, B. cepacia BC003) was 0.52. The FIC (bacterial isolates; peptide + Ceftriaxone, P. aeruginosa PA008) was 0.25, the FIC (bacterial isolates; peptide + Ceftriaxone, P. aeruginosa PA024) was 0.50 and the FIC (bacterial isolates; peptide + Ceftriaxone, S. maltophilia SMA020) was 0.75. The FIC (bacterial isolates; peptide + Ceftriaxone, S. maltophilia SMA021) was 0.50, the FIC (bacterial isolates; peptide + Ceftriaxone, S. maltophilia SMA023) was 0.38 and the FIC (bacterial isolates; peptide + Piperacillin, E. cloacae 6) was 0.56. It also gave an FIC (bacterial isolates; peptide + Piperacillin, E. cloacae 9) of 0.50, an FIC (bacterial isolates; peptide + Piperacillin, E. cloacae 10) of 0.50 and an FIC (bacterial isolates; peptide + Piperacillin, H. influenzae 1) of 0.50. It also gave an FIC (bacterial isolates; peptide + Piperacillin, H. influenzae SB1) of 0.50, an FIC (bacterial isolates; [4]) of 0.56 and an FIC (bacterial isolates; [5]) of 0.50. It also gave an FIC (bacterial isolates; peptide + Piperacillin, S. maltophilia 5) of 0.50, an FIC (bacterial isolates; peptide + Piperacillin, S. maltophilia 9) of 0.50 and an FIC (bacterial isolates; peptide + Piperacillin, S. maltophilia 11) of 0.38. The FIC (bacterial isolates; peptide + Piperacillin, S. marcescens 1) was 0.27 and the “time of maximum activity in growth cycle” value [1] was 140 min and 230 min.

For ILKKWPWWPWRRK [MBI 11CN], the MIC (S. aureus; S. aureus SA003) was 2 µg/mL, the “Peptide MIC values” (S. aureus; S. aureus MRSA9) was 2 µg/mL and the “Peptide MIC values” (S. aureus; S. aureus MRSA13) was 16 µg/mL. The “Peptide MIC values” (S. aureus; S. aureus MRSA17) was 4 µg/mL, the MIC (E. faecium; E. faecium EFM001) was 8 µg/mL and the “Peptide MIC values” (E. faecium; agarose dilution) was 8 µg/mL. The “Peptide MIC + Tobramycin” value (bacterial isolates; A. baumannii ABI001) was 16 µg/mL, the “Tobramycin MIC + Peptide” value (bacterial isolates; A. baumannii ABI001) was 4 µg/mL and the “Peptide MIC Alone” value (bacterial isolates; A. baumannii ABI001, Tobramycin section) was 64 µg/mL. The “Peptide MIC + Tobramycin” value (bacterial isolates; E. coli ECO006) was 0.25 µg/mL, the “Tobramycin MIC + Peptide” value (bacterial isolates; E. coli ECO006) was 4 µg/mL and the “Peptide MIC Alone” value (bacterial isolates; E. coli ECO006, Tobramycin section) was 8 µg/mL. For the same sequence, the “Peptide MIC + Piperacillin” value (bacterial isolates; P. aeruginosa 22) was 32 µg/mL, the “Piperacillin MIC + Peptide” value (bacterial isolates; P. aeruginosa 22) was 4 µg/mL and the “Peptide MIC Alone” value (bacterial isolates; P. aeruginosa 22, Piperacillin section) was 64 µg/mL. The “Peptide MIC + Piperacillin” value (bacterial isolates; P. aeruginosa 23) was 4 µg/mL, the “Piperacillin MIC + Peptide” value (bacterial isolates; P. aeruginosa 23) was 64 µg/mL and the “Peptide MIC Alone” value (bacterial isolates; [2]) was 128 µg/mL. For the same sequence, the “Peptide MIC + Tobramycin” value (bacterial isolates; P. aeruginosa PA032) was 4 µg/mL, the “Tobramycin MIC + Peptide” value (bacterial isolates; P. aeruginosa PA032) was 8 µg/mL and the “Peptide MIC Alone” value (bacterial isolates; P. aeruginosa PA032, Tobramycin section) was >128 µg/mL. The “Peptide MIC + Piperacillin” value (bacterial isolates; S. aureus 18 MRSA) was 16 µg/mL, the “Piperacillin MIC + Peptide” value (bacterial isolates; S. aureus 18 MRSA) was 0.5 µg/mL and the “Peptide MIC Alone” value (bacterial isolates; S. aureus 18 MRSA, Piperacillin section) was 32 µg/mL. The “Peptide MIC + Piperacillin” value (bacterial isolates; S. aureus 19 MRSA) was 1 µg/mL, the “Piperacillin MIC + Peptide” value (bacterial isolates; S. aureus 19 MRSA) was 64 µg/mL and the “Peptide MIC Alone” value (bacterial isolates; [3]) was 8 µg/mL. For the same sequence, the “Peptide MIC + Tobramycin” value (bacterial isolates; S. maltophilia SMA029) was 2 µg/mL, the “Tobramycin MIC + Peptide” value (bacterial isolates; S. maltophilia SMA029) was 64 µg/mL and the “Peptide MIC Alone” value (bacterial isolates; S. maltophilia SMA029, Tobramycin section) was >128 µg/mL. For the same sequence, the “Peptide MIC + Tobramycin” value (bacterial isolates; S. maltophilia SMA035) was 32 µg/mL, the “Tobramycin MIC + Peptide” value (bacterial isolates; S. maltophilia SMA035) was 4 µg/mL and the “Peptide MIC Alone” value (bacterial isolates; S. maltophilia SMA035, Tobramycin section) was 128 µg/mL. For the same sequence, the FIC (bacterial isolates; peptide + Piperacillin, P. aeruginosa 22) was 0.52, the FIC (bacterial isolates; [4]) was 0.53 and the FIC (bacterial isolates; peptide + Piperacillin, S. aureus 18 MRSA) was 0.50. The FIC (bacterial isolates; [5]) was 0.38, the FIC (bacterial isolates; peptide + Tobramycin, A. baumannii ABI001) was 0.50 and the FIC (bacterial isolates; peptide + Tobramycin, E. coli ECO006) was 0.53. For the same sequence, the FIC (bacterial isolates; peptide + Tobramycin, P. aeruginosa PA032) was 0.52, the FIC (bacterial isolates; peptide + Tobramycin, S. maltophilia SMA029) was 0.51 and the FIC (bacterial isolates; peptide + Tobramycin, S. maltophilia SMA035) was 0.38. For the same sequence, the “ONPG hydrolysis diminished compared to no pre-incubation” value ([1]; cells pre-incubated with valinomycin) was “approximately 50%”.
